SMILES strings stand for the structures.

Assay [1] addresses T1, guinea pig tracheal strips (Cavia porcellus, UniProt Q8K4Z4).
T1 construct: from tissue; host or cells: guinea pig tracheal spiral strips
Put plainly: Beta blocking activity in vitro, guinea pig tracheal strips (isoproterenol-induced relaxation). Conditions: carbachol tension, vs isoproterenol, 60-minute incubation, read-out: pA2 value in the trachea (converted). As to the method:
(§1) Compounds of the present invention are tested for β-blocking activity in vitro using guinea pig right atria and guinea pig tracheal strips mounted in a tissue bath containing oxygenated (95% O2 -5% CO2) Krebs physiological salt solution at 37° C. Each tissue is suspended between a fixed glass rod and a Statham Universal Transducer connected to a Beckman recorder. Atria were allowed to beat spontaneously under a loading tension of approximately 0.5 gm. Intrinsic depressant or stimulant activity is determined for each compound by progressively increasing concentrations in the tissue baths at 60-minute intervals. Tissues are not washed between increments. The maximum concentration showing little or no cardiodepressant activity is chosen for blockade experiments. Changes in rate in response to isoproterenol, a standard β-receptor agonist, is measured in the absence and presence of test compounds. Spiral strips of guinea pig trachea are suspended under 5 gm resting tension and incubated with phentolamine, tropolone and cocaine. Active tension is generated by addition of carbachol (3.0×10^-7 M) and decreases in tension in response to isoproterenol are quantitated. Cumulative concentration-response curves are produced with isoproterenol both before and after 60-minute incubation of test compounds with atria and trachea. […]

For assay [2], the system named is β-blockade of isoproterenol heart rate response. The experiment in a line: Duration of beta-blocking action in vivo, anesthetized dogs. Details: species or system dog. Conditions: pentobarbital-anesthetized dogs, after 3-hour infusion, isoproterenol 0.5 μg/kg bolus. How it is done: The duration of β-blockade is determined In vivo using pentobarbital-anesthetized dogs instrumented for measurement of heart rate using a Beckman cardiotachometer triggered electronically by a phasic aortic blood pressure signal. Both vagus nerves are severed in the cervical region and the animals are mechanically ventilated. The experimental design used employs a 3-hour infusion of test compound. Bolus doses of isoproterenol (0.5 μg/kg) are used to assess the degree of β-blockade and recovery from β-blockade after […] of the infusion. The doses are spaced at 10-minute intervals and are given before, during and following the infusion of test compounds. The infusion rate is adjusted so that at the end of the 3-hour infusion period the degree of isoproterenol inhibition averaged about 50% of control. Following termination of blocker infusion, percent recovery from β-blockade is computed and the time associated with 80% recovery estimated.

Assay [3] deals with T2, guinea pig right atria (Cavia porcellus, UniProt H0W3H1).
T2 construct: from tissue; host or cells: guinea pig right atria (isolated, spontaneously beating)
T2 sequence (H0W3H1 1-470): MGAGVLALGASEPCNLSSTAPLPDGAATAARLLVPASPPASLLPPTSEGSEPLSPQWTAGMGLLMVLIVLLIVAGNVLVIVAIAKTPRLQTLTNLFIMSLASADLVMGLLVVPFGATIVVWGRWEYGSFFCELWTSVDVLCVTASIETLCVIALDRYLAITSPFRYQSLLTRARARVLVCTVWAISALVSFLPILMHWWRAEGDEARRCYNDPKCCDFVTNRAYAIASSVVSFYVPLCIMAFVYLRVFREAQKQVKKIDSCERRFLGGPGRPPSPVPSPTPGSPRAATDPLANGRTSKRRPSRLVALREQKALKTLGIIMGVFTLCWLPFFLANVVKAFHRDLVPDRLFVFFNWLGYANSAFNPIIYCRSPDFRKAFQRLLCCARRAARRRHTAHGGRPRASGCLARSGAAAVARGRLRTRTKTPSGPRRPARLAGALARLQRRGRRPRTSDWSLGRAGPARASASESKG
The experiment in a line: Beta blocking activity in vitro, guinea pig right atria (isoproterenol-induced rate change). Conditions: guinea pig right atria, vs isoproterenol, 60-minute incubation; read-out: pA2 value in the atria (converted). How it is done:
as §1

For assay [4], the system named is guinea pig right atria. Described as above. Conditions: ratio greater than one indicates cardioselectivity. How it is done: as §1

T1 sequence (Q8K4Z4 whole entry): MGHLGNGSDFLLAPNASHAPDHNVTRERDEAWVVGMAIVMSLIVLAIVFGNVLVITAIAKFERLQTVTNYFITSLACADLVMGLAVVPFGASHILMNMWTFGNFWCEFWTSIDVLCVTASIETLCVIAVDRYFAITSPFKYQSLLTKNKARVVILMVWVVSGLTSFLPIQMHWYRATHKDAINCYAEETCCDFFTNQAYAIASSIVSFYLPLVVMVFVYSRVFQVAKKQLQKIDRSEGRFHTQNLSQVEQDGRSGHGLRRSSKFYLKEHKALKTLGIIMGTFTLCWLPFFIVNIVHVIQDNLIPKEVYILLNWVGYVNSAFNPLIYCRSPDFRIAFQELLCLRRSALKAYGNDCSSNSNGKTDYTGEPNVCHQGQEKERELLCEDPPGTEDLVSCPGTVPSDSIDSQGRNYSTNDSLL

Regarding `COC(=O)c1ccccc1OCC(O)CNCCNc1ccc([N+](=O)[O-])cn1` (stereo not shown) [Example I, Methyl 2[2-Hydroxy-3-[2-[2-(5-nitropyridinyl)amino]ethyl]aminopropoxy benzoate], the Kb in assay [1] was 0.0794 µM; in assay [3], 0.0316 µM. Besides, the “in vivo duration of action (time to 80% recovery from β-blockade)” value in assay [2] was determined as 15 ± 6 min. For the same compound, the “cardioselectivity (ratio KB trachea/KB atria)” value in assay [4] is reported as 2.5.

Source of the values: patent US4556668A, “Ethylenediamine derivatives of aryloxypropanolamine aryl esters having various medicinal properties” (American Hospital Supply Corporation, priority 1983, dated 1985).
